According to BindingDB's records for doi:10.1021/cb500512z (University of Wisconsin-Milwaukee, 2014):

Molecular target: Genome polyprotein (Hepacivirus C, UniProt A3EZJ3)
Assay: EMSA
Conditions: pH 7.5; 23 °C
Description: Binding assays containing 25 mM MOPS pH 7.5, 1.25 mM MgCl2, 20 nM Cy5-dT15, and 200 nM NS3h_1b were incubated 5 min at RT. Following addition of indicated concentrations of ebselen, the binding reactions were incubated another 5 min at 23 C.

Genome polyprotein, sequence (A3EZJ3 whole entry): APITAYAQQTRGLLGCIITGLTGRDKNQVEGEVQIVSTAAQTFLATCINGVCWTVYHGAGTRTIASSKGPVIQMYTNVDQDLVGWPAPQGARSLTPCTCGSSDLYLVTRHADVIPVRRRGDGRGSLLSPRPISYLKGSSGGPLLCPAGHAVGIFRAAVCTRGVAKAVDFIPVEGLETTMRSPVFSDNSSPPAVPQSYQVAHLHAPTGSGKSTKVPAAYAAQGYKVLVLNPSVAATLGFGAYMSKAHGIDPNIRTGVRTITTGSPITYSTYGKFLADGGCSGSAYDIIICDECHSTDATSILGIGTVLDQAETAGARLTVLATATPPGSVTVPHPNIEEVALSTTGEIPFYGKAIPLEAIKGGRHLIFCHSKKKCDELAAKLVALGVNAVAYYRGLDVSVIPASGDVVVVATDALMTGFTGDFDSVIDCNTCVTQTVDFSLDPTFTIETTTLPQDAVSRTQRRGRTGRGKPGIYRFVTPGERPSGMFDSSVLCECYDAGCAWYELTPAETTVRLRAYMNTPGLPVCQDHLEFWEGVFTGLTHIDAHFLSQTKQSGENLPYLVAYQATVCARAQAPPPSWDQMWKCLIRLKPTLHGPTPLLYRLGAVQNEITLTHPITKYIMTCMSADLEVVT

Cc1ccccc1NC(=O)Cn1sc2ccccc2c1=O
IC50: 3.9 µM
